Key:
[1] = biological target: MelBSt (melibiose permease of Salmonella typhimurium) (Salmonella enterica, UniProt P30878, L5M); details: read-out: WT; 20 mM NaCl, 10 μM D2G, 100 mM KPi pH 7.5; sugar site, competitive
[2] = biological target: MelBSt (melibiose permease of Salmonella typhimurium) (Salmonella enterica, UniProt P30878, L5M/G117A); details: read-out: G117A; 20 mM NaCl, 10 μM D2G, 100 mM KPi pH 7.5; sugar site, competitive

`OC[C@H]1O[C@H](OC[C@H]2OC(O)[C@H](O)[C@@H](O)[C@@H]2O)[C@H](O)[C@@H](O)[C@H]1O` (some centres unmarked) [melibiose] was tested. Which IC50 [1] did it give?
The IC50 was 3.8 mM.

What about the IC50 [2] of the same compound?
The IC50 was 8.1 mM.

— article PMC3334291 (Biochemistry, 2012)
